Results: US4181716A, “Antibiotics” (Beecham Group Limited, priority 1974, dated 1980)
Counter-ions that a name gives are not always drawn.

Legend:
stability = assay type: physicochemical
trypsin = assay: enzyme inhibition (not a general enzyme poison); assay type: biochemical; settings: at concentrations in excess of those required to inhibit the β-lactamase of E. coli
carbonic anhydrase = assay: enzyme inhibition (not a general enzyme poison); assay type: biochemical; settings: at concentrations in excess of those required to inhibit the β-lactamase of E. coli
dopa decarboxylase = assay: enzyme inhibition (not a general enzyme poison); assay type: biochemical; settings: at concentrations in excess of those required to inhibit the β-lactamase of E. coli
[1] = tested on: Staphylococcus aureus, Bacillus subtilis, Escherichia coli, Klebsiella aerogenes, Proteus mirabilis, Acinetobacter anitratus, Serratia marcescens and Shigella …; assay: antibacterial activity (property list); assay type: cell-based, bacteria; settings: substantially pure sodium salt
chymotrypsin = assay: enzyme inhibition (not a general enzyme poison); assay type: biochemical; settings: at concentrations in excess of those required to inhibit the β-lactamase of E. coli
urease = assay: enzyme inhibition (not a general enzyme poison); assay type: biochemical; settings: at concentrations in excess of those required to inhibit the β-lactamase of E. coli
monoamine oxidase = assay: enzyme inhibition (not a general enzyme poison); assay type: biochemical; settings: at concentrations in excess of those required to inhibit the β-lactamase of E. coli
[2] = tested on: Staphylococcus aureus (Russell); assay: antibacterial activity by bioautography (Table 4); assay type: cell-based; settings: TLC with cellulose, butanol/isopropyl alcohol/water 7:7:6 v/v
From the text: (§1) Analysis of the preparation by thin layer chromatography on cellulose (Eastman Kodak "Chromagram" sheets) developed with n-butanol; isopropanol:water (7:7:6) separated two active substances, one with an approximate Rf of 0.54 which was designated MM 4550 A and one with an approximate Rf of 0.72 which was designated MM 13902.
(§2) 13902 AS DETERMINED BY BIOAUTOGRAPHY (TLC
(§3) WITH CELLULOSE AND BUTONAL/ISOPROPYL
(§4) ALCOHOL/WATER 7:7:6 v/v)

Enterobacter aerogenes = assay: antibacterial activity by bioautography (Table 4); assay type: cell-based; settings: TLC with cellulose, butanol/isopropyl alcohol/water 7:7:6 v/v
From the text: as §1, §2, §3, §4

[3] = tested on: Staphylococcus aureus (Oxford); assay: antibacterial activity by bioautography (Table 4); assay type: cell-based; settings: TLC with cellulose, butanol/isopropyl alcohol/water 7:7:6 v/v
From the text: as §1, §2, §3, §4

Escherichia coli 10418 = assay: antibacterial activity by bioautography (Table 4); assay type: cell-based; settings: TLC with cellulose, butanol/isopropyl alcohol/water 7:7:6 v/v
From the text: as §1, §2, §3, §4

Proteus morganii = assay: antibacterial activity by bioautography (Table 4); assay type: cell-based; settings: TLC with cellulose, butanol/isopropyl alcohol/water 7:7:6 v/v
From the text: as §1, §2, §3, §4

Bacillus subtilis = assay: antibacterial activity by bioautography (Table 4); assay type: cell-based; settings: TLC with cellulose, butanol/isopropyl alcohol/water 7:7:6 v/v
From the text: as §1, §2, §3, §4

Klebsiella aerogenes [4] = assay: antibacterial activity by bioautography (Table 4); assay type: cell-based; settings: TLC with cellulose, butanol/isopropyl alcohol/water 7:7:6 v/v
From the text: as §1, §2, §3, §4

Salmonella typhi = assay: antibacterial activity by bioautography (Table 4); assay type: cell-based; settings: TLC with cellulose, butanol/isopropyl alcohol/water 7:7:6 v/v
From the text: as §1, §2, §3, §4

solubility = assay type: physicochemical; settings: sodium salt
Klebsiella aerogenes [5] = assay: assay of activity in units against culture filtrate; assay type: cell-based
Procedure: The MM 4550 (Complex) was eluted from the resin with 5% NaCl in 50% aqueous methanol. […] The MM 4550 (Complex) content of culture filtrate was arbitrarily set at 8 units/ml. The eluted fractions from the column were assayed using an antibacterial diffusion method against Klebsiella aerogenes and the activity units were calculated by reference to a standard line prepared by plotting zone diameter against units/ml. for various dilutions of culture filtrate (i.e. the culture filtrate was used as a standard).
The material produced above was arbitrarily assigned an activity of 340 l/ml. Assays were determined as described in Description 3.

[6] = tested on: Escherichia coli, Klebsiella aerogenes, Proteus mirabilis, Proteus morganii and Staphylococcus aureus Russell; assay: synergism with ampicillin (property list); assay type: cell-based, bacteria; settings: sodium salt
Proteus mirabilis = assay: antibacterial activity by bioautography (Table 4); assay type: cell-based; settings: TLC with cellulose, butanol/isopropyl alcohol/water 7:7:6 v/v
From the text: as §1, §2, §3, §4

Escherichia coli 311 = assay: antibacterial activity by bioautography (Table 4); assay type: cell-based; settings: TLC with cellulose, butanol/isopropyl alcohol/water 7:7:6 v/v
From the text: as §1, §2, §3, §4

[7] = tested on: Staphylococcus aureus, Bacillus subtilis, Escherichia coli, Klebsiella aerogenes, Proteus mirabilis, Salmonella typhi and Pseudomonas aeruginosa; assay: antibacterial activity (property list); assay type: cell-based, bacteria; settings: sodium salt
Shigella sonnei = assay: MIC, microtitre method (Table 10); assay type: cell-based; settings: heavy inoculum, 1/100 overnight broth
Procedure: (§5) Partially purified MM 4550Adi-sodium salt (0.55 g) was chromatographed on a cellulose column (4.5 cm×29 cm; Whatman CC31 cellulose) eluted with n-propanol/water (4:1 v/v) at a flow rate of 2.5 ml./min. The first 135 ml of eluate was discarded and then 15 ml fractions collected.
(§6) ANTIBACTERIAL ACTIVITY OF THE DI-SODIUM
(§7) SALT OF MM 4550A ([…]-HEAVY
(§8) INOCULUM, 1/100 OVERNIGHT BROTH

Staph. aureus Russell = assay: MIC, microtitre method (Table 10); assay type: cell-based; settings: heavy inoculum, 1/100 overnight broth
Procedure: as §5, §6, §7, §8

[8] = tested on: Salmonella typhimurium CT 10; assay: MIC, microtitre method (Table 10); assay type: cell-based; settings: heavy inoculum, 1/100 overnight broth
Procedure: as §5, §6, §7, §8

Bacillus subtilis A = assay: MIC, microtitre method (Table 10); assay type: cell-based; settings: heavy inoculum, 1/100 overnight broth
Procedure: as §5, §6, §7, §8

Proteus mirabilis 13 = assay: MIC, microtitre method (Table 10); assay type: cell-based; settings: heavy inoculum, 1/100 overnight broth
Procedure: as §5, §6, §7, §8

Kleb. aerogenes A = assay: MIC, microtitre method (Table 10); assay type: cell-based; settings: heavy inoculum, 1/100 overnight broth
Procedure: as §5, §6, §7, §8

Staph. aureus Oxford = assay: MIC, microtitre method (Table 10); assay type: cell-based; settings: heavy inoculum, 1/100 overnight broth
Procedure: as §5, §6, §7, §8

Proteus vulgaris WO 90 = assay: MIC, microtitre method (Table 10); assay type: cell-based; settings: heavy inoculum, 1/100 overnight broth
Procedure: as §5, §6, §7, §8

[9] = tested on: Serratia marcescens US 39; assay: MIC, microtitre method (Table 10); assay type: cell-based; settings: heavy inoculum, 1/100 overnight broth
Procedure: as §5, §6, §7, §8

Ps. aeruginosa A = assay: MIC, microtitre method (Table 10); assay type: cell-based; settings: heavy inoculum, 1/100 overnight broth
Procedure: as §5, §6, §7, §8

Enterobacter cloacae N1 = assay: MIC, microtitre method (Table 10); assay type: cell-based; settings: heavy inoculum, 1/100 overnight broth
Procedure: as §5, §6, §7, §8

Prov. stuartii = assay: MIC, microtitre method (Table 10); assay type: cell-based; settings: heavy inoculum, 1/100 overnight broth
Procedure: as §5, §6, §7, §8

Strep. faecalis = assay: MIC, microtitre method (Table 10); assay type: cell-based; settings: heavy inoculum, 1/100 overnight broth
Procedure: as §5, §6, §7, §8

What does the source list for `CC(=O)N/C=C/[S+]([O-])C1=C(C(=O)O)N2C(=O)C(C(C)OS(=O)(=O)O)C2C1` (stereo not drawn) [MM 4550A]?
stability for isolation from mixtures (stability; monobasic salts and free acid): not sufficiently stable to isolate from mixtures; stability (stability; unsalted acid form): tends to be unstable; inhibition of trypsin (trypsin): does not inhibit; inhibition of carbonic anhydrase (carbonic anhydrase): does not inhibit; inhibition of dopa decarboxylase (dopa decarboxylase): does not inhibit; antibacterial activity [1]: possesses antibacterial activity; inhibition of chymotrypsin (chymotrypsin): does not inhibit; inhibition of urease (urease): does not inhibit; inhibition of monoamine oxidase (monoamine oxidase): does not inhibit; Zone Diameter on Bioautography [2]: 12.0 mm; Zone Diameter on Bioautography (Enterobacter aerogenes): 6.5 mm; Zone Diameter on Bioautography [3]: 13.0 mm; Zone Diameter on Bioautography (Escherichia coli 10418): 20.0 mm; Zone Diameter on Bioautography (Proteus morganii): 16.0 mm; Zone Diameter on Bioautography (Bacillus subtilis): 24.0 mm; Zone Diameter on Bioautography (Klebsiella aerogenes [4]): 20.0 mm; Zone Diameter on Bioautography (Salmonella typhi): 19.5 mm; solubility in chloroform, diethylether and hydrocarbons (solubility): substantially insoluble; solubility in methanol (solubility): soluble; solubility in water (solubility): highly soluble; activity (Klebsiella aerogenes [5]; Example 3, partially purified salt (2.18 g brown solid)): 3,100 units/mg; synergism when mixed with ampicillin [6]: synergizes its activity

What does the source list for `CC(=O)N/C=C/SC1=C(C(=O)O)N2C(=O)C(C(C)OS(=O)(=O)O)C2C1` (stereo not drawn) [MM 13902]?
Zone Diameter on Bioautography [2]: 4.0 mm; Zone Diameter on Bioautography (Enterobacter aerogenes): No Zone; Zone Diameter on Bioautography [3]: 4.0 mm; Zone Diameter on Bioautography (Escherichia coli 10418): 13.5 mm; Zone Diameter on Bioautography (Proteus morganii): 9.5 mm; Zone Diameter on Bioautography (Proteus mirabilis): 13.5 mm; Zone Diameter on Bioautography (Escherichia coli 311): 10.5 mm; Zone Diameter on Bioautography (Bacillus subtilis): 15.0 mm; Zone Diameter on Bioautography (Klebsiella aerogenes [4]): 20.0 mm; Zone Diameter on Bioautography (Salmonella typhi): 21.0 mm; synergism when mixed with ampicillin [6]: synergyses its activity; antibacterial activity [7]: possesses antibacterial activity

For `CC(=O)N/C=C/[S+]([O-])C1=C(C(=O)O)N2C(=O)C(C(C)OS(=O)(=O)O)C2C1` (stereo not drawn) [di-sodium salt of MM 4550A], which activity (Klebsiella aerogenes [5]; Example 3, yellowish powder (87 mg) after cellulose column) is on record?
The activity was 6,600 units/mg.

And the MIC (Shigella sonnei)?
Its MIC is 5 µg/mL.

And the MIC (Staph. aureus Russell)?
Its MIC is 20 µg/mL.

What about the MIC [8] of the same compound?
Its MIC is 5 µg/mL.

What about the MIC (Bacillus subtilis A) of the same compound?
Its MIC is 25 µg/mL.

And the MIC (Proteus mirabilis 13)?
The MIC was 10 µg/mL.

And the MIC (Kleb. aerogenes A)?
Its MIC is 2.5 µg/mL.

And the MIC (Staph. aureus Oxford)?
Its MIC is 20 µg/mL.

What about the MIC (Proteus vulgaris WO 90) of the same compound?
Its MIC is 5 µg/mL.

What about the MIC [9] of the same compound?
The MIC was 20 µg/mL.

And the MIC (Ps. aeruginosa A)?
The MIC was greater than 100 µg/mL.

And the MIC (Enterobacter cloacae N1)?
Its MIC is 100 µg/mL.

And the MIC (Prov. stuartii)?
The MIC was 5 µg/mL.

What about the MIC (Strep. faecalis) of the same compound?
Its MIC is 100 µg/mL.
